Patent US20090305321A1, “Assays for Allosteric Modulators of G-Protein Coupled Receptors (GPCRs)” (ASTRAZENECA AB, priority 2005, published 2009)
pIC50: −log10 of the molar value.

Columns and labels:
[1] = biological target: T1, CX3CR1 (Homo sapiens, UniProt P49238); experiment: biochemical
T1 sequence (P49238 1-355): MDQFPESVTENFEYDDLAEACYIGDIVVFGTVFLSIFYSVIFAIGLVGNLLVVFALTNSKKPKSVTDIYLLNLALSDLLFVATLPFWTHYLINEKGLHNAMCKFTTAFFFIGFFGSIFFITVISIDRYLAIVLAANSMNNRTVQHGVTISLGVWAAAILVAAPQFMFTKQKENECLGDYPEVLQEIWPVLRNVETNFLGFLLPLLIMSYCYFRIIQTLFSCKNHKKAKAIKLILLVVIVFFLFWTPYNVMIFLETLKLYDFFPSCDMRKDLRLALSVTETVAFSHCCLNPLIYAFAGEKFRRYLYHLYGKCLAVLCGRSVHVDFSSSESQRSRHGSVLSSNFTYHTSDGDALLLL

[2] = biological target: T2, CCR4 (Homo sapiens, UniProt P51679); experiment: Chemokine receptor panel (assays similar to Example 1 and 2), CCR4; assay type: binding
T2 sequence (P51679 1-360): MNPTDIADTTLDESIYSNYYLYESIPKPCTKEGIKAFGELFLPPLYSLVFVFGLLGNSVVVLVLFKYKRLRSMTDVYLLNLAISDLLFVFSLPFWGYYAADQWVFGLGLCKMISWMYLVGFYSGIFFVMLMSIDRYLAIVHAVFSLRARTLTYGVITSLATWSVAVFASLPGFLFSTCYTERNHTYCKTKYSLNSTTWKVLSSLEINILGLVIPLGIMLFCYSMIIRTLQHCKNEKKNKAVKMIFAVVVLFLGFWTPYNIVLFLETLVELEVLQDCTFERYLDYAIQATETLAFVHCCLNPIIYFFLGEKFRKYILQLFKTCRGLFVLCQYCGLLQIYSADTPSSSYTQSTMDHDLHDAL
Procedure: (§1) Membranes (80 μL of 1×10^6 cell equivalents/mL) were then added, giving a total incubation volume of 100 μL per well. The plates were incubated for 2 hours at room temperature.
(§2) HEK 293 transfectants were seeded at 5×10^4 cells per well in 96 well poly-D lysine coated black with clear bottom plates (Becton Dickinson) and cultured for 16 h at 37° C. with an atmosphere of 5% CO2/95% air to form confluent monolayers. The following day cells were loaded with 5 μM Flura 3 AM diluted in tyrodes solution (137 mM NaCl, 10 mM HEPES, 0.441 mM KH2PO4, 2.67 mM KCl, 1.8 mM CaCL2, 1 mM MgCl2) with 6.25 mM probenecid at pH7.4, 100 μl per well and incubated at 37° C. with an atmosphere of 5% CO2/95% air for 1 h. After which the loading media was removed and the cells washed twice with PBS/HEPES solution (100 μl per well) then overlayed with 50 μl assay buffer (tyrodes buffer without probenecid). 50 μl inhibitor compound or 50 μl 0.2% (v/v) DMSO carrier diluted in assay buffer was then added per well and incubated for 30 minutes at room temperature before the addition of 50 μl 3 mM Carbachol per well. Calcium flux responses were measured using a Fluorometric Imaging Plate Reader (Molecular Devices) for 3 minutes before the addition of either IL-8 (50 μl, 1×10^−7-3×10^−11 M final concentration) or GROalpha. […] Fluorescence readings were taken every 2 seconds for a total run time of 6 minutes.

[3] = biological target: T3, GST-CXCR2 fusion protein (human CXCR2 residues G318 to L360) (Homo sapiens, UniProt P25025); experiment: [3H]Compound A radioligand binding to GST-CXCR2 C terminal tail; settings: 20 nM [3H]Compound A, FIG. 21, average of three experiments
T3 construct: made in house; host or cells: E. coli
T3 sequence (P25025 with tags, fused parts or gaps): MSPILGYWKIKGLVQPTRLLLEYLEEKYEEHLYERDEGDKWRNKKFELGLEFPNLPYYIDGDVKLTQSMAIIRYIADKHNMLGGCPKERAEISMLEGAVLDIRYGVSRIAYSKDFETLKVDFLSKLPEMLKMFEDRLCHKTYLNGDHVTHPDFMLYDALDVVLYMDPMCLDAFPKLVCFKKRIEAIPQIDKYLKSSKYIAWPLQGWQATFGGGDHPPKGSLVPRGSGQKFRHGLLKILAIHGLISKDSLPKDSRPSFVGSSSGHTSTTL
Procedure: An expression construct which encodes for S. Japonicum glutathione-S-transferase (GST) fused to the last 43 amino acids of human CXCR2 (residues G318 to L360) was generated by standard molecular biological techniques.
The protein was expressed in E. coli and the resulting fusion protein was purified from the cell extract via chromatography using a 5 ml GSTrap column (Amersham) which binds GST containing proteins, and eluted using 10 mM reduced glutathione in the elution buffer. At the same time GST without a CXCR2 C-terminal tail was also expressed and purified as a control. Both proteins had the excess 10 mM glutathione removed using a XK26/10 desalting column (Amersham).
Protein solutions (50 μL dilutions starting at 1.28 mg/ml) of either GST-CXCR2 fusion or wild type GST were then added, giving a total incubation volume of 200 μL per well.
A GF-B filter plate was set up containing 50 μl of 1 mg/ml gelatine in PBS in each well, which was then filtered through the plate and discarded. […] After filtering, 100 μl filtrate was transferred to a lumaplate and dried down in a 50° C. oven overnight and then counted on the TopCount instrument (Packard BioScience)

[4] = biological target: T4, CCR2b (Homo sapiens, UniProt P41597); experiment: Chemokine receptor panel (assays similar to Example 1 and 2), CCR2b; assay type: binding
T4 sequence (P41597 1-360 isoform P41597-2): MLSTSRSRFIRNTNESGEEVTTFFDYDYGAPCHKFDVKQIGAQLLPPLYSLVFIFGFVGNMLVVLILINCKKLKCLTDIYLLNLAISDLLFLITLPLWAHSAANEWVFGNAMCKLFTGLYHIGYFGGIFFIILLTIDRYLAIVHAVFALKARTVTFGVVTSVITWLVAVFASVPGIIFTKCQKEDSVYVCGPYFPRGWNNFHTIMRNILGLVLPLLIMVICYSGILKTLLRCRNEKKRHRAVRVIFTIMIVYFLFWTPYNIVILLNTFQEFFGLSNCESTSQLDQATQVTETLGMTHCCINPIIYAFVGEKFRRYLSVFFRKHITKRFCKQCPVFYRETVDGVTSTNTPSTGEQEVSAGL

[5] = biological target: T5, CXCR2 (Homo sapiens, UniProt P25025); experiment: HEK FLIPR intracellular calcium assay, wild type CXCR2; assay type: cell-based; settings: Compound A 30 nM (10 nM and 30 nM in Example 5), Compound B 100 nM
T5 construct: expressed in transfected cells
T5 sequence (P25025 1-360): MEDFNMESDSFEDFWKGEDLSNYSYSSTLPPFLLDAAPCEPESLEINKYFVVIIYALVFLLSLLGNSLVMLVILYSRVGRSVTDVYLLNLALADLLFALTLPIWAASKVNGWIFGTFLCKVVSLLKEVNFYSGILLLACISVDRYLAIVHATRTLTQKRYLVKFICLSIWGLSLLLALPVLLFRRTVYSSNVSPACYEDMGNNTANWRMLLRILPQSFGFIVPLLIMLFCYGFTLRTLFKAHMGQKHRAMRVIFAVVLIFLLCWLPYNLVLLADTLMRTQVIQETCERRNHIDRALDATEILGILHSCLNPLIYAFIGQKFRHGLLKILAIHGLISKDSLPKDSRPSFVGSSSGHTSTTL
Procedure: HEK cells, transfected with the human recombinant CXCR2 receptor, were grown to approximately 80% confluence in 225 cm^2 flasks in DMEM-Glutamax medium containing, non-essential amino acids, 10% (v/v) FCS in a humidified incubator at 37° C., 5% CO2. Cells were harvested from the flask using 10× trypsin at 37° C. for 1 to 2 minutes.
(§3) All points were reproduced in triplicate on each plate.

[6] = biological target: T6, CXCR1 (Homo sapiens, UniProt P25024); experiment: Chemokine receptor panel (assays similar to Example 1 and 2), CXCR1; assay type: binding
T6 sequence (P25024 1-350): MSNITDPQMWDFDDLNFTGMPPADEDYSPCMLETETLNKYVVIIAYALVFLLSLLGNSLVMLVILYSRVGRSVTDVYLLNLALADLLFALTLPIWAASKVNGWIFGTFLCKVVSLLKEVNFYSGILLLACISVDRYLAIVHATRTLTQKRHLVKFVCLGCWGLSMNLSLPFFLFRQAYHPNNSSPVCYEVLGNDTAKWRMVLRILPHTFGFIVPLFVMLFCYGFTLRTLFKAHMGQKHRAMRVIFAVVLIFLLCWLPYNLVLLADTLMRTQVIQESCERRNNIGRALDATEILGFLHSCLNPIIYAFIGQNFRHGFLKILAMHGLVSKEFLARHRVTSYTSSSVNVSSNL
Excerpt: as §3

[7] = biological target: T7, CCR1 (Homo sapiens, UniProt P32246); experiment: Chemokine receptor panel (assays similar to Example 1 and 2), CCR1; assay type: binding; settings: CCR1, 10 uM
T7 sequence (P32246 1-355): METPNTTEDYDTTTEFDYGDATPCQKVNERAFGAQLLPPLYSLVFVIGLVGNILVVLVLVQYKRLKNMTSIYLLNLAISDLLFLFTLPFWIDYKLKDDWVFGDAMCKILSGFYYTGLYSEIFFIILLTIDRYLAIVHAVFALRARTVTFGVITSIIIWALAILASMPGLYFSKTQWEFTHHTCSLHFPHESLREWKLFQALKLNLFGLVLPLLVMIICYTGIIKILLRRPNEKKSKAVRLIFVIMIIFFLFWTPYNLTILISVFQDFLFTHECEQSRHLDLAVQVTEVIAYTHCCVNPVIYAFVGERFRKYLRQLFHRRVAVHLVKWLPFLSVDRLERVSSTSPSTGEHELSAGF

[8] = biological target: CCR5 (Homo sapiens, UniProt P51681); experiment: Chemokine receptor panel (assays similar to Example 1 and 2), CCR5; assay type: binding; settings: CCR5, 10 uM
CCR5, sequence (P51681 whole entry): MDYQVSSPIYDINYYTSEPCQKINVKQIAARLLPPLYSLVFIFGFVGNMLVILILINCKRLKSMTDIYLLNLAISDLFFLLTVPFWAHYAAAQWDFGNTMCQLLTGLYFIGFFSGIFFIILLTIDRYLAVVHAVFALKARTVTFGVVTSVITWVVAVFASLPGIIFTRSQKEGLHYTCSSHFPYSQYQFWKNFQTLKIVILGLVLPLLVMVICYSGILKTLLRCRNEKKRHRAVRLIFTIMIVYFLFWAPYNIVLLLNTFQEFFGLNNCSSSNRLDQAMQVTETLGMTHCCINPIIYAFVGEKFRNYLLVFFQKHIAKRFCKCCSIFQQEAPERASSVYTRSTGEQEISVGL
Procedure: as §1, §2

[9] = biological target: T8, wild type GST (Schistosoma japonicum, UniProt P08515); experiment: [3H]Compound A radioligand binding to wild type GST control; settings: 20 nM [3H]Compound A; FIG. 21, average of three experiments
T8 construct: made in house; host or cells: E. coli
T8 sequence (P08515 whole entry): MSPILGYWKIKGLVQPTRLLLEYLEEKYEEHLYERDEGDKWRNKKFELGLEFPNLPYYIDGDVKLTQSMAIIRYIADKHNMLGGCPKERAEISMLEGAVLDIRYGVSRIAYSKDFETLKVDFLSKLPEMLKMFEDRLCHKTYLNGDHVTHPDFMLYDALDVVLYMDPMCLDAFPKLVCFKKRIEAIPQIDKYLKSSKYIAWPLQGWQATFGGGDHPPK
Procedure: Protein solutions (50 μL dilutions starting at 1.28 mg/ml) of either GST-CXCR2 fusion or wild type GST were then added, giving a total incubation volume of 200 μL per well. The plates were incubated for 2 hours at room temperature.
A GF-B filter plate was set up containing 50 μl of 1 mg/ml gelatine in PBS in each well, which was then filtered through the plate and discarded. 100 μl filter mix (160 mg/ml charcoal (dextran coated) in PBS containing 1 mg/ml gelatine) was then filtered through the plate and then 150 μl assay mix was then filtered through the prepared filter plate (The charcoal catches the excess un-bound compound). After filtering, 100 μl filtrate was transferred to a lumaplate and dried down in a 50° C. oven overnight and then counted on the TopCount instrument (Packard BioScience)

[10] = biological target: T9, human Chemokine receptor CXCR2 (Homo sapiens, UniProt P25025); experiment: CXCR2 membrane [125I]IL-8 radioligand binding assay; settings: FIG. 2
T9 construct: expressed in transfected cells
T9 sequence (P25025 1-360): T5 sequence (P25025 1-360)
Procedure: HEK 293 cells were transfected with CXCR2 receptor using the lipofection reagent Fugene 6 (Roche). […] Stable HEK-CXCR2 transfectants were grown to approximately 80% confluence in 10-layer cell factories in DMEM medium containing 10% (v/v) foetal calf serum and glutamine (2 mM) in a humidified incubator at 37° C., 5% CO2. Cells were harvested from the flask using Accutase at 37° C. for 3 to 5 minutes.
Cells were resuspended on ice in 60 mL hypotonic buffer at a density of 2×10^7 cells/mL. Membranes were prepared on ice by homogenisaton using a polytron tissue homogenizer set at 22000 rpm. The membrane preparation was purified by sucrose gradient centrifugation. In each of 4 centrifuge tubes 15 mL of cell membranes was layered onto 10 mL 41% (w/v) sucrose solution and the tubes centrifuged at 140000 g for 1 hour at 4° C. […]
Following incubation, the plate containing the assay mixture was filter-washed with 200 μL cold HEPES-buffered salt solution using a Millipore vacuum manifold. The filtration plate was allowed to air dry then either the individual filters were punched out into polypropylene test tubes and the radioactivity measured by direct gamma counting using a Cobra II Gamma counter (Packard BioScience) for 1 minute per sample or alternatively, the whole filtration plate was placed in a carrier plate and 50 μL of MicroScint-O added to each well. […]

[11] = biological target: T5, CXCR2; experiment: [3H]-Compound C binding assay on CXCR2 membranes; settings: 20 nM [3H]Compound C, FIG. 3
Procedure: Following incubation, the plate containing the assay mixture was transferred to GF-B plates and filter-washed with cold HEPES-buffered salt solution using a Tomtec harvester. The filtration plate was allowed to air dry then 20 μl of MicroScint-0 added to each well. 96-well plate scintillation counting was performed using a TopCount instrument (Packard BioScience) for 1 minute per sample well.

C[C@H](CO)Nc1nc(SCc2cccc(Cl)c2F)nc2[nH]c(=O)sc12 [Compound A] was tested, and the pIC50 [1] was 6.60, the pIC50 [2] was 5.10 and the “radiolabelled binding to GST-CXCR2 fusion protein on addition of excess cold compound” value [3] was “decrease in radiolabelled binding”. The pIC50 [4] was 6.80, the “activity (inhibition of IL-8-induced calcium release)” value [5] was “active against CXCR2” and the pIC50 [6] was 6.60. The inhibition at 10 µM [7] was 62%, the inhibition at 10 µM [8] was 72% and the “compound binding to wild type GST control protein” value [9] was “minimal compound binding”.
For C[C@H](CO)Nc1nc(SCc2ccccc2)nc2nc(N)sc12 [Compound C], the “inhibition of [125I]-IL-8 binding” value [10] was “able to inhibit the binding” and the “binding to CXCR2 / displacement of radio-labelled Compound C” value [11] was “can bind to CXCR2”.
For NS(=O)(=O)c1c(Cl)ccc(NC(=O)Nc2cccc(Cl)c2Cl)c1O [Compound B], the “activity (inhibition of IL-8-induced calcium release)” value [5] was “active against CXCR2”.
“IL-8: C-X-C chemokine, endogenous CXCR2/CXCR1 agonist ligand; non-radioactive IL-8 used as competitor” was tested, and the “inhibition of [125I]-IL-8 binding” value [10] was “able to inhibit the binding”.
